According to PubChem BioAssay (NCI):
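Values below derive from 48-hour exposures of cells grown in 96-well plates, with endpoints linearly interpolated between the two concentrations bracketing the appropriate inhibition level. Abbreviation: GI50, concentration required for 50% inhibition of growth. The concentration for full growth arrest is given as TGI.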

Legend:
Experiment in all cases: NCI anticancer screen, dose series, 48 h
[1] = system: 786-0 renal
[2] = system: DU-145 prostate
[3] = system: HCC-2998 colon
[4] = system: KM12 colon
[5] = system: MCF7 breast
[6] = system: NCI/ADR-RES ovarian
[7] = system: SK-MEL-5 melanoma
[8] = system: SK-OV-3 ovarian
[9] = system: UO-31 renal
[10] = system: EKVX NSCLC

| SMILES | GI50 [1] [µM] | TGI [1] [µM] | GI50 [2] [nM] | TGI [2] [µM] | GI50 [3] [µM] | TGI [3] [µM] | GI50 [4] [nM] | TGI [4] [µM] | GI50 [5] [nM] | TGI [5] [µM] | GI50 [6] [µM] | TGI [6] [µM] | GI50 [7] [nM] | TGI [7] [µM] | GI50 [8] [µM] | TGI [8] [µM] | GI50 [9] [µM] | TGI [9] [µM] | GI50 [10] [µM] | TGI [10] [µM] |
| --- | --- | --- | --- | --- | --- | --- | --- | --- | --- | --- | --- | --- | --- | --- | --- | --- | --- | --- | --- | --- |
| COc1ccc2sc3cccc(NCCN(C)C)c3c(=O)c2c1 | 3.14 | 14.5 | 4020 | 13.5 | 1.83 | 3.39 | 3720 | 12.1 | 1760 | 3.9 | 2.98 | 11.3 | 2450 | 6.27 | 4.26 | 15 | 2.06 | 6.97 |  |  |
| O=C1/C(=N\O)c2ccccc2S1(=O)=O |  | > 100 |  |  |  | > 100 |  | > 100 |  |  |  |  |  | > 100 |  | > 100 |  | > 100 |  |  |
| c1ccc([CH2][Sn]([CH2]c2ccccc2)([O]c2cccc3cccnc23)[O]c2cccc3cccnc23)cc1 | 0.155 | 0.385 |  |  | 0.201 | 0.418 | 223 | 0.515 |  |  |  |  | 213 | 0.415 | 0.492 | 1.57 | 0.363 | 1.39 | 0.741 | 1.99 |
| O=S(=O)([O-])c1ccc(N=Cc2ccccc2[O-])cc1.O=S(=O)([O-])c1ccc(N=Cc2ccccc2[O-])cc1.[O]=[U+2]=[O] | 42.7 | > 100 |  |  |  |  |  |  |  |  |  |  |  |  | > 100 | > 100 | > 100 | > 100 | > 100 | > 100 |
| Cc1ccc(S(=O)(=O)c2ccc(NC(=O)SCCC(=O)O)cc2)cc1 |  | > 100 |  |  |  | > 100 |  | > 100 |  |  |  |  |  |  |  |  |  | > 100 |  | > 100 |
| COc1ccc2c(c1)[n+]([O-])c(-c1ccc([N+](=O)[O-])cc1)c(N)[n+]2[O-] |  | > 100 |  |  |  |  |  | > 100 |  |  |  |  |  | > 100 |  | > 100 |  | > 100 |  | > 100 |
| O=C1c2[nH]cc(CNC3CN4CCC3CC4)c2C(=O)c2c1c(O)c1ccccc1c2O (centres undefined) | 2.53 | 8.65 | 714 | 7.21 | 0.187 | 0.721 | 672 | 2.32 |  |  | 2.08 | 6.4 | 11900 | 31.5 | 3.71 | 20.1 | 3.66 | 21.4 | 16.1 | 33.1 |
| CCOC(=O)c1ccc(Nc2sc(C(=O)c3ccc(Br)cc3)c(N)c2C#N)cc1 | 1.99 | > 100 | 1800 | > 100 | > 100 | > 100 | 775 | > 100 | 655 | > 100 | 0.842 | > 100 | 1020 | > 100 | 1.04 | > 100 | 1.93 | > 100 |  |  |
| CN(C)c1ccc(/C=C/C(=O)[O-])cc1.CN(C)c1ccc(/C=C/C(=O)[O-])cc1.[Cu+2] | 59.5 | > 100 |  |  |  | > 100 |  | > 100 |  |  |  |  |  | 93.5 |  | > 95 |  | > 100 |  | > 100 |
| COc1c(C)cc(O)cc1C=O |  | > 100 |  |  |  | > 100 |  | > 100 |  |  |  |  |  | > 100 |  | > 100 |  | > 100 |  | > 100 |
| Nc1c(C(=O)c2ccc(-c3cccnc3)cc2)cnn1-c1ccc(F)cc1 | > 18.4 | > 25 | > 25000 | > 25 | > 25 | > 25 | > 20800 | > 25 | > 25000 | > 25 | > 19.5 | > 25 | > 15200 | > 25 | > 14.2 | > 23 | > 12.8 | > 22 |  |  |
| CCOC(=O)C1=C(C)N=c2s/c(=C\c3ccccc3O)c(=O)n2C1c1ccc(OC)c2ccccc12 (centres undefined) | 2.59 | 10.3 | 8300 | 32 | 8.43 | 58.1 | 9660 | > 100 | 4360 | 32 | 7.92 | 43.5 | 15600 | 64.8 | 14 | 27 | 15.6 | 33.1 |  |  |
| O=C1/C(=C\c2ccc(F)cc2)CN(C(=O)c2ccccc2)C/C1=C\c1ccc(F)cc1 | 1.83 | 4.25 |  |  | 2.62 | 6.98 |  |  | 841 | 4.31 | 4.14 | > 100 | 1660 | 3.8 | 5.95 | 19.5 | 2.4 | 10.6 |  |  |
| O=[N+]([O-])c1ccc(C2CC(c3ccccc3Cl)=Nc3ccccc3S2)cc1 (centres undefined) |  | 12.3 |  |  |  | 54.2 |  | 13.4 |  |  |  |  |  | 12.8 |  | > 85.3 |  | 36.8 |  | 31 |
| O=c1cc(-c2ccccc2)oc2ccc(OC/C(=N/O)c3ccccc3)cc12 | 8.92 | > 50 | 1730 | > 50 | 11 | > 50 | 1950 | > 50 |  |  | 3.3 | > 50 | 1820 | 11.7 | 1.1 | 16.2 | 4.34 | > 50 | 3.82 | > 50 |
| COC(=O)C1=Cc2cc(OC)c(OC)c(OC)c2[C@H](c2cc(OC)c(OC)c(OC)c2)C1C(=O)OC (some centres undefined) |  | > 100 |  |  |  | > 100 |  | > 100 |  |  |  |  |  | > 100 |  | > 100 |  | > 100 |  | > 100 |
| N.N.NCCCCCN.O=C([O-])CCl.O=C([O-])CCl.O=C([O-])CCl.O=C([O-])CCl.[Pt+4].[Pt+4] | 3.36 | 24.4 |  |  | 11.6 | 28 | 20900 | > 100 |  |  |  |  | 4680 | 18.3 | 8.01 | 48.1 | 4.23 | 17.9 | 17 | 58.2 |
| CCOC(=O)C1SC(=Nc2cccc(Cl)c2C)N=C1C (centres undefined) |  | 31.8 |  |  |  | > 10 |  | 77.7 |  |  |  |  |  |  |  |  |  | 78.9 |  | > 10 |
